The source of these data is PMC4231793 (Biology of blood and marrow transplantation : journal of …, 2012).

“And” between values parts separate entries of the source, which are not always exact repeats. Equal values may be shown once. Read-outs that look alike come from different tables or passages of the source.

A word on the CL/F: it is the apparent clearance, not corrected for the fraction that reaches the circulation. In general, AUC(0-t) refers to the area under the concentration-time curve up to a stated or last time point. A low value points to low exposure. As usually defined, the Tmax is the time from dosing to the highest level. By Vd/F is commonly meant the apparent distribution volume after extravascular dosing.

The conditions of data set [1]: ref [10], cited from earlier work.
The conditions of data set [2]: cited from earlier work; for AUC0–24: ref [9],[14]; for Half-life: ref [9]; for t1/2: pediatric renal transplant patients, every-12-hour schedule, calcineurin inhibitor-free protocol, ref [8].
The format of data set [3] is in vivo, human.
Data set [4] can be described thus: Population pharmacokinetic analysis. Format: in vivo, human.
A short description of data set [5]: Noncompartmental pharmacokinetic analysis of whole-blood sirolimus. Format: in vivo, human. Conditions: for concentration at 0 h: Co (trough concentration prior to oral dosing).
Another data set relates to CYP3A4. The settings on record: compared with itraconazole, voriconazole, and posaconazole; ref [7],[23]; cited from earlier work.
Setting [6] is: at 180 days, sirolimus, tacrolimus and methotrexate GVHD prophylaxis.
Setting [7] is: of 63 subjects in the clinical study, sirolimus with tacrolimus.
The mark [8] stands for this setting: human, whole blood, oral, 2.5 mg/m^2/day.
Where [9] appears, read: population estimate ± standard error.
Where [10] appears, read: patients receiving concomitant fluconazole (i.v. or oral).

Consider `CO[C@H]1C[C@@H]2CC[C@@H](C)[C@@](O)(O2)C(=O)C(=O)N2CCCC[C@H]2C(=O)O[C@H]([C@H](C)C[C@@H]2CC[C@@H](O)[C@H](OC)C2)CC(=O)[C@H](C)/C=C(\C)[C@@H](O)[C@@H](OC)C(=O)[C@H](C)C[C@H](C)/C=C/C=C/C=C/1C` [sirolimus, Sirolimus], for which, in data set [1] (setting [6]), the “Cumulative incidence of grade III–IV aGVHD” value is recorded as 21%. Besides, the “Cumulative incidence of grade II–IV aGVHD” value in data set [1] (setting [6]) is 38%. Besides, the “Subjects who developed thrombotic microangiopathy” value in data set [1] (setting [7]) is on record as 3 subjects. The “Subjects who developed veno-occlusive disease of liver” value in data set [1] (setting [7]) is recorded as 7 subjects. Also, the “AUC0–24” value in data set [2] (adult kidney transplant recipients) is given as 173 ± 50 ng·h/mL; in data set [2] (pediatric liver transplant recipients), 168.3 ± 86.5 ng·h/mL; in data set [2] (pediatric small bowel transplant recipients) it was 177.4 ± 72.1 ng·h/mL. Besides, the Half-life in data set [2] (pediatric liver transplant recipients on sirolimus and tacrolimus) is 21.2 ± 14.1 h; in data set [2] (small bowel transplant recipients on sirolimus and tacrolimus), 19.3 ± 5.6 h; in data set [5] (human, whole blood, oral, 2.5 mg/m^2/day, Mean t1/2, patients age ≤12 years), 21.8 h. In addition, the t1/2 in data set [2] (1 month posttransplantation) was 9.7 h; in data set [2] (3 months posttransplantation), 10.8 h. Also, the “Share of sirolimus whole-blood concentrations >12 ng/mL” value in data set [3] (above target range) was 12%. Besides, the “Share of sirolimus whole-blood concentrations <3 ng/mL” value in data set [3] (below target range) amounted to 9%. Further, the “Share of sirolimus whole-blood (trough) concentrations within target range” value in data set [3] (target range 3–12 ng/mL, with therapeutic drug monitoring) was 79%. The “Clearance (Cl/F), population estimate” value in data set [4] (37 patients, 333 concentrations, estimate ± standard error) is recorded as 6.66 ± 1.10 L/h. Further, the results for the CL/F in data set [4] (setting [8]) and in data set [5] (setting [8]) were 2.83 mL/min/kg and 3.17 mL/min/kg, respectively. The same compound yielded a Vd in data set [4] (setting [8]) of 26.9 ± 7.7 L. In addition, in data set [4] (setting [9]), the “Absorption rate constant (ka)” value is 0.0535 ± 0.0104 h⁻¹. In addition, the “Intercompartment clearance (Q)” value in data set [4] (setting [9]) is on record as 4.62 ± 2.00 L/h. Moreover, the “Volume of distribution of peripheral compartment (Vp)” value in data set [4] (setting [9]) is on record as 630 ± 171 L. In addition, the concentration at 24 h in data set [5] (human, whole blood, iv, 2.5 mg/m^2/day, C24 trough concentration, patients who developed grade III–IV aGVHD (n = 10), mean ± SD) turned out to be 6.1 ± 2.9 ng/mL; in data set [5] (human, whole blood, oral, 2.5 mg/m^2/day, C24 (trough concentration at 24 hours after oral dosing), i.v. Fluconazole (n = 16), mean ± SD (range)) it was 10 ng/mL; in data set [5] (human, whole blood, oral, 2.5 mg/m^2/day, C24 trough concentration, patients with grade 0-II aGVHD (n = 22), mean ± SD), 9.4 ± 5.5 ng/mL; in data set [5] (human, whole blood, po, 2.5 mg/m^2/day, C24 (trough concentration at 24 hours after oral dosing), All (n = 33), mean ± SD (range)), 9.1 ± 5.3 ng/mL; in data set [5] (human, whole blood, po, 2.5 mg/m^2/day, C24 (trough concentration at 24 hours after oral dosing), No Fluconazole (n = 11), mean ± SD (range)) it was 8 ng/mL; in data set [5] (human, whole blood, po, 2.5 mg/m^2/day, C24 (trough concentration at 24 hours after oral dosing), Oral Fluconazole (n = 6), mean ± SD (range)), 8.6 ng/mL. This compound also showed an AUC(0-t) in data set [5] (setting [8]) of 401 ± 316 ng·h/mL. Besides, the Tmax in data set [5] (setting [8]) was determined as 3.3 ± 1.6 h. Further, in data set [5] (setting [8]), the Vd/F came out at 5.78 ± 5.7 L/kg. For the same compound, the concentration at 0 h in data set [5] (human, whole blood, oral, 2.5 mg/m^2/day, i.v. Fluconazole (n = 16), mean ± SD (range)) was 8 ng/mL; in data set [5] (human, whole blood, po, 2.5 mg/m^2/day, All (n = 33), mean ± SD (range)) it was 8 ± 4.6 ng/mL; in data set [5] (human, whole blood, po, 2.5 mg/m^2/day, No Fluconazole (n = 11), mean ± SD (range)) it was 6.8 ng/mL; in data set [5] (human, whole blood, po, 2.5 mg/m^2/day, Oral Fluconazole (n = 6), mean ± SD (range)) it was 11 ng/mL. Also, the “Difference between trough concentrations (C24 - C0)/C24, average” value in data set [5] (n = 33, not significantly greater than 0 (P = .75)) is listed as 10.3%. The “Dose-normalized C24” value is 2.5 ± 1.7 ng/mL/mg and 2.51 ± 1.72 ng/mL/mg in data set [5] (patients not receiving fluconazole); 4.8 ± 3.3 ng/mL/mg and 4.8 ± 3.34 ng/mL/mg in data set [5] (setting [10]). The “Dose-normalized C0” value in data set [5] (setting [10]) is 3.9 ± 2.5 ng/mL/mg and 3.93 ± 2.5 ng/mL/mg. For the same compound, the C24 trough concentration was 6.11 ± 2.89 ng/mL in data set [5] (patients who developed grade III–IV aGVHD (n = 10), mean ± SD) and 9.42 ± 5.52 ng/mL in data set [5] (patients with grade 0-II aGVHD (n = 22), mean ± SD).

As to `OC(Cn1cncn1)(Cn1cncn1)c1ccc(F)cc1F` [Fluconazole], in the data set on CYP3A4, the “In vitro CYP3A4 inhibition, rank among azoles” value is “weakest in vitro inhibitor of CYP3A4”.
